Patent publication US10633382B2, “Imidazopyrazinones, pyrazolopyrimidinones and pyrazolopyridinones as PDE1 inhibitors” (H. Lundbeck A/S, priority 2016, dated 2020)

Legend:
Format in all cases: biochemical
PDE1A = PDE1A (Homo sapiens, UniProt P54750); test: PDE1 inhibition assay (PDE1A); conditions: 15 nM tritium labelled cAMP, SPA
Procedure: (§1) PDE1A, PDE1B and PDE1C assays were performed as follows: the assays were performed in 60 μL samples containing a fixed amount of the PDE1 enzyme (sufficient to convert 20-25% of the cyclic nucleotide substrate), a buffer (50 mM HEPES (4-(2-hydroxyethyl)-1-piperazineethanesulfonic acid) pH 7.6; 10 mM MgCl2; 0.02% Tween20), 0.1 mg/ml BSA (bovine serum albumin), 15 nM tritium labelled cAMP and varying amounts of inhibitors. Reactions were initiated by addition of the cyclic nucleotide substrate, and reactions were allowed to proceed for 1 hr at room temperature before being terminated through mixing with 20 μL (0.2 mg) yttrium silicate SPA beads (PerkinElmer). The beads were allowed to settle for 1 hour in the dark before the plates were counted in a Wallac 1450 Microbeta counter. The measured signals were converted to activity relative to an uninhibited control (100%) and IC50 values were calculated using XlFit (model 205, IDBS).

PDE9 = PDE9 (Homo sapiens, UniProt O76083); test: PDE9 inhibition assay; conditions: 10 μM of inhibitor
Procedure: A PDE9 assay may for example, be performed as follows: The assay is performed in 60 μL samples containing a fixed amount of the relevant PDE enzyme (sufficient to convert 20-25% of the cyclic nucleotide substrate), a buffer (50 mM HEPES pH 7.6; 10 mM MgCl2; 0.02% Tween20), 0.1 mg/ml BSA, 225 pCi of ^3H-labelled cyclic nucleotide substrate, tritium labeled cAMP to a final concentration of 5 nM and varying amounts of inhibitors. Reactions are initiated by addition of the cyclic nucleotide substrate, and reactions are allowed to proceed for one hr at room temperature before being terminated through mixing with 15 μL 8 mg/mL yttrium silicate SPA beads (Amersham). The beads are allowed to settle for one hr in the dark before the plates are counted in a Wallac 1450 Microbeta counter. The measured signal can be converted to activity relative to an uninhibited control (100%) and IC50 values can be calculated using the Xlfit extension to EXCEL.
In the context of the present invention the assay was performed in 60 μL assay buffer (50 mM HEPES pH 7.6; 10 mM MgCl2; 0.02% Tween20) containing enough PDE9 to convert 20-25% of 10 nM ^3H-cAMP, and […] 10 μM of inhibitor. Following 1 hr incubation the reactions were terminated by addition of 15 μL 8 mg/mL yttrium silicate SPA beads (Amersham). The beads were allowed to settle for one hr in the dark before the plates were counted in a Wallac 1450 Microbeta counter.

PDE1B = PDE1B (Homo sapiens, UniProt Q01064); test: PDE1 inhibition assay (PDE1B); conditions: 15 nM tritium labelled cAMP, SPA
Procedure: as §1

PDE1C = PDE1C (Homo sapiens, UniProt Q14123); test: PDE1 inhibition assay (PDE1C); conditions: 15 nM tritium labelled cAMP, SPA
Procedure: as §1

Sequence of PDE9 (O76083 whole entry): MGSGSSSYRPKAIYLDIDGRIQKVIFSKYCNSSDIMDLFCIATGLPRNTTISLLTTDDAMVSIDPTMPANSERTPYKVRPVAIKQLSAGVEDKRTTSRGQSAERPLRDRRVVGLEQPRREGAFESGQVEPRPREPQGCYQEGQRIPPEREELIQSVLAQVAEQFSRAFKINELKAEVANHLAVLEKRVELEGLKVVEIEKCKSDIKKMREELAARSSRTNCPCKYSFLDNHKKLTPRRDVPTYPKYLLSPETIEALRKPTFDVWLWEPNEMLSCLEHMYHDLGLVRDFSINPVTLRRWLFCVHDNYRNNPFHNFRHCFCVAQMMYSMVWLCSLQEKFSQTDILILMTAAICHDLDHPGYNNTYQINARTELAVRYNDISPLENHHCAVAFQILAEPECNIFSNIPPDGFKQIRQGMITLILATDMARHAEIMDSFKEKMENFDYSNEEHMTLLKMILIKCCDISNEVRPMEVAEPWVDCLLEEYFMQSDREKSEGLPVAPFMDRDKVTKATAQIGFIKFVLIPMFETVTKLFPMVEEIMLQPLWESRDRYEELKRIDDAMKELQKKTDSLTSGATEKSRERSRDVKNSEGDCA
Sequence of PDE1B (Q01064 whole entry): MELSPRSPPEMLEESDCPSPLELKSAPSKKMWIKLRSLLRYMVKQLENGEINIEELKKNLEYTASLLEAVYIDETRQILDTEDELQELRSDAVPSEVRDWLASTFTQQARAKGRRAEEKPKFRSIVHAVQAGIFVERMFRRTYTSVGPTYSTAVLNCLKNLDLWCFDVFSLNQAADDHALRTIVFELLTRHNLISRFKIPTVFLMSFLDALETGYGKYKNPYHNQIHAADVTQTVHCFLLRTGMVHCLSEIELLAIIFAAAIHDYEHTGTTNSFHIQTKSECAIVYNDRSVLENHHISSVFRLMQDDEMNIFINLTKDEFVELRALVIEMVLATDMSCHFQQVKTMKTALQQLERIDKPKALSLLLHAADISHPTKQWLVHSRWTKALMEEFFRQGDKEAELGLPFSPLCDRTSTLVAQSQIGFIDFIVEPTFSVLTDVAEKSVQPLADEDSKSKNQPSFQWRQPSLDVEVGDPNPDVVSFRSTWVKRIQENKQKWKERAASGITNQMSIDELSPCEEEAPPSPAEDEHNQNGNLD
Sequence of PDE1C (Q14123 whole entry): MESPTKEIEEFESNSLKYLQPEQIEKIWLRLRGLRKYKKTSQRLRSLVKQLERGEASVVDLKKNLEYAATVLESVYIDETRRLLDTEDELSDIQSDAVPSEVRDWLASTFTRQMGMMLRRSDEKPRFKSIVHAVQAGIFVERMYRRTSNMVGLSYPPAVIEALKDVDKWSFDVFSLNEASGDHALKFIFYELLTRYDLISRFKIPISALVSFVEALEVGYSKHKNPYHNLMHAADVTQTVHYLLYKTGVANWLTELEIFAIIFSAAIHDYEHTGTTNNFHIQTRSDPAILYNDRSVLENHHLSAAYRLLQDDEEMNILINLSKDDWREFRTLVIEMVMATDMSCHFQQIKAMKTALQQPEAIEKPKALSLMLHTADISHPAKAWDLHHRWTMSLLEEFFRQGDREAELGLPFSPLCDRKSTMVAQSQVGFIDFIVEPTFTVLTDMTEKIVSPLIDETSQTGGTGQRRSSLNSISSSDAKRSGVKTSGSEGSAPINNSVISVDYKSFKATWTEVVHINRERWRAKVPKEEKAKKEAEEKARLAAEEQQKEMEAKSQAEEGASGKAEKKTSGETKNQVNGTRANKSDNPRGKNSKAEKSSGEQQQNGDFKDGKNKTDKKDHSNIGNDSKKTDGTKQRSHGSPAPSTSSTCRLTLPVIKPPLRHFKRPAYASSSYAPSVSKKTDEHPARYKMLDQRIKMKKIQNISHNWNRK
Sequence of PDE1A (P54750 whole entry): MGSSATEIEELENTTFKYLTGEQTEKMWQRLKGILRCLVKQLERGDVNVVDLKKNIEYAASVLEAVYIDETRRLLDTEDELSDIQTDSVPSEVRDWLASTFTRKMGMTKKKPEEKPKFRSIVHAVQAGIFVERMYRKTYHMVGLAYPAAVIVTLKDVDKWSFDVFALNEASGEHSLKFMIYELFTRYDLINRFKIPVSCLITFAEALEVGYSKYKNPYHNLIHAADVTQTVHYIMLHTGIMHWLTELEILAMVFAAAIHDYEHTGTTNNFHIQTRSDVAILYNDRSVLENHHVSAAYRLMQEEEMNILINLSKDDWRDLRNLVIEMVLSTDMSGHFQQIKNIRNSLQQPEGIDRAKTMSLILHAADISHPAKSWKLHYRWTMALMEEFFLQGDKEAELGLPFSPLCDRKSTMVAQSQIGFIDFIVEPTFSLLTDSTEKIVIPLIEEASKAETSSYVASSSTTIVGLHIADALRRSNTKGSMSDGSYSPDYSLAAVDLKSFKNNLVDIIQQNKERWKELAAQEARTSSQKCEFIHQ

| Structure (SMILES) | IC50 (PDE1A) [nM] | inhibition at 10 µM (PDE9) [%] | IC50 (PDE1B) [nM] | IC50 (PDE1C) [nM] | PDE9 Inhibition at 10 μM (%) (PDE9) |
| --- | --- | --- | --- | --- | --- |
| Cn1c(Cc2ccc(-c3ccccn3)cc2)nc2c(cnn2C2CCOCC2)c1=O [Example 2, 5-methyl-6-[[4-(2-pyridyl)phenyl]methyl]-1-tetrahydropyran-4-yl-pyrazolo[3,4-d]pyrimidin-4-one] | 390 | 5 | 92 | 530 |  |
| Cn1c(Cc2ccc(-c3cccc(F)n3)cc2)cc2c(cnn2C2CCOCC2)c1=O [Example 5, 6-[[4-(6-fluoro-2-pyridyl)phenyl]methyl]-5-methyl-1-tetrahydropyran-4-yl-pyrazolo[4,3-c]pyridin-4-one] | 120 | 3 | 20 | 190 |  |
| Cc1cccc(-c2ccc(Cc3nc4c(cnn4C4CCOCC4)c(=O)n3C)cc2)n1 [Example 3, 5-methyl-6-[[4-(6-methyl-2-pyridyl)phenyl]methyl]-1-tetrahydropyran-4-yl-pyrazolo[3,4-d]pyrimidin-4-one] | 350 | 25 | 93 | 660 |  |
| COc1ccc(Cn2c(CN3CCN(c4ccccc4)CC3)cn3c(C4CCOCC4)ncc3c2=O)cc1 [Example 8, 7-[(4-methoxyphenyl)methyl]-6-[(4-phenylpiperazin-1-yl)methyl]-3-tetrahydropyran-4-yl-imidazo[1,5-a]pyrazin-8-one] | 59 | 11 | 9.8 | 140 |  |
| COc1ccc(Cn2c(CN3CCN(c4ccccn4)CC3)cn3c(C4CCOCC4)ncc3c2=O)cc1 [Example 7, 7-[(4-methoxyphenyl)methyl]-6-[[4-(2-pyridyl)piperazin-1-yl]methyl]-3-tetrahydropyran-4-yl-imidazo[1,5-a]pyrazin-8-one] | 88 | 19 | 13 | 190 |  |
| Cn1c(Cc2ccc(-c3ccccn3)cc2)cn2c(C3CCOCC3)ncc2c1=O [Example 11, 7-methyl-6-[[4-(2-pyridyl)phenyl]methyl]-3-tetrahydropyran-4-yl-imidazo[1,5-a]pyrazin-8-one] | 30 | -10 | 3.5 | 120 |  |

Now from value to compound:

| IC50 (PDE1A) [nM] | inhibition at 10 µM (PDE9) [%] | IC50 (PDE1B) [nM] | IC50 (PDE1C) [nM] | PDE9 Inhibition at 10 μM (%) (PDE9) | Structure (SMILES) |
| --- | --- | --- | --- | --- | --- |
| 28 | 7 | 7.3 | 61 |  | Cn1c(Cc2ccc(-c3ccccc3)cc2)cn2c(C3CCOCC3)ncc2c1=O [Example 19, 7-methyl-6-[(4-phenylphenyl)methyl]-3-tetrahydropyran-4-yl-imidazo[1,5-a]pyrazin-8-one] |
| 61 |  | 24 | 104 | 4 | CC1OCCC1c1ncc2c(=O)n(C)c(Cc3ccc(-c4cccc(F)n4)cc3)cn12 (single isomer, unassigned; isomer 1) [Example 29, 6-(4-(6-fluoropyridin-2-yl)benzyl)-7-methyl-3-(2-methyltetrahydrofuran-3-yl)imidazo[1,5-a]pyrazin-8(7H)-one, Isomer 1] |
| 87 | 2 | 21 | 161 |  | COc1cccnc1-c1ccc(Cc2cn3c(C4CCOCC4)ncc3c(=O)n2C)cc1 [Example 17, 6-[[4-(3-methoxy-2-pyridyl)phenyl]methyl]-7-methyl-3-tetrahydropyran-4-yl-imidazo[1,5-a]pyrazin-8-one] |
| 91 | -2 | 30 | 198 |  | Cn1c(Cc2ccc(-c3cnccn3)cc2)cn2c(C3CCOCC3)ncc2c1=O [Example 24, 7-methyl-6-(4-(pyrazin-2-yl)benzyl)-3-(tetrahydro-2H-pyran-4-yl)imidazo[1,5-a]pyrazin-8(7H)-one] |
| 75 | -6 | 17 | 157 |  | Cn1cnc(-c2ccc(Cc3cn4c(C5CCOCC5)ncc4c(=O)n3C)cc2)c1 [Example 20, 7-methyl-6-(4-(1-methyl-1H-imidazol-4-yl)benzyl)-3-(tetrahydro-2H-pyran-4-yl)imidazo[1,5-a]pyrazin-8(7H)-one] |
| 71 |  | 26 | 111 | 6 | Cn1c(Cc2ccc(-c3cccc(F)n3)cc2)cn2c(C3CCOC3)ncc2c1=O (single isomer, unassigned; isomer 2) [Example 28, 6-(4-(6-fluoropyridin-2-yl)benzyl)-7-methyl-3-(tetrahydrofuran-3-yl)imidazo[1,5-a]pyrazin-8(7H)-one, Isomer 2] |
